{
  "source": "paper PMC4856313",
  "about": "(PLoS Pathogens, 2016)",
  "key": {"[1]": {"system": "T1, Staphylococcus aureus MRSA COL", "T1 construct": "COL (MRSA), parental wild type", "assay": "microbe, parasite or virus in culture", "parameters": "minimum inhibitory concentration of antibiotics against staphylococcal strains", "from_the_text": "(§1) Minimum inhibitory concentrations (MIC; μg ml^-1) of β-lactams imipenem (IPM), nafcillin (Naf), and dicloxacillin (Dic) are provided. […] To directly evaluate the consequence of these mnaA mutations, WTA of the corresponding mutants was extracted and polymer levels visualized on an alcian blue-silver stained SDS PAGE gel (Fig 3A and S1 Fig)."}, "[2]": {"system": "T2, Staphylococcus epidermidis MRSE CLB26329", "T2 construct": "CLB26329 (MRSE), parental wild type", "assay": "microbe, parasite or virus in culture", "parameters": "minimum inhibitory concentration of antibiotics against staphylococcal strains", "from_the_text": "as §1"}, "MnaA": {"target": "T3, MnaA (Staphylococcus aureus, UniProt Q9REV4)", "T3 construct": "MnaA-His6 in the activity assays; purification in supplement (S1 Text); dimer in crystal; residues from 376 to the C-terminus not modelled", "T3 sequence (Q9REV4 entry or part of it)": "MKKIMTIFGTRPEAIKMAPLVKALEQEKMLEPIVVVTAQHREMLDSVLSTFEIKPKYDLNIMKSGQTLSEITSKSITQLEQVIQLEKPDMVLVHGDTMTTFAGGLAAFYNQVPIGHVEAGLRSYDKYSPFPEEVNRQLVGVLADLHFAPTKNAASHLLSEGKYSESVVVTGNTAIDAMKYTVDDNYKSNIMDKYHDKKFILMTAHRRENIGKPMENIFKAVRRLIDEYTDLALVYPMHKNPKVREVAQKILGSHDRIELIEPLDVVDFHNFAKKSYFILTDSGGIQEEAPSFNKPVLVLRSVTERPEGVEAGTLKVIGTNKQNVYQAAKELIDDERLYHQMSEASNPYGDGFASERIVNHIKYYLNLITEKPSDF", "assay": "X-ray crystal structure, […] Å", "format": "binding", "settings": "4 mM Na2UDP added; one UDP per chain; also co-purified with the protein"}, "[3]": {"system": "CC(=O)N[C@@H]1[C@@H](OP(=O)(O)OP(=O)(O)OC[C@H]2O[C@@H](n3ccc(=O)[nH]c3=O)[C@H](O)[C@@H]2O)O[C@H](CO)[C@@H](O)[C@@H]1O", "assay": "purified protein", "settings": "reverse reaction, 10 mM NaPi, 50 mM NaCl, pH 8.0, 30°C, MnaA-His6"}, "[4]": {"system": "CC(=O)N[C@H]1[C@@H](OP(=O)(O)OP(=O)(O)OC[C@H]2O[C@@H](n3ccc(=O)[nH]c3=O)[C@H](O)[C@@H]2O)O[C@H](CO)[C@@H](O)[C@@H]1O", "assay": "purified protein", "settings": "forward reaction, 10 mM NaPi, 50 mM NaCl, pH 8.0, 30°C, MnaA-His6"}, "[5]": {"settings": "read-out: MIC (µg ml-1) / Vanco"}},
  "note": "Read-outs that look alike come from different tables or passages of the source.",
  "data": [
    {"molecule": "C[C@@H](O)[C@H]1C(=O)N2C(C(=O)O)=C(SCCNC=N)C[C@H]12", "note": "[imipenem]", "values": [
      {"measurement": "MIC", "setting": "[1]; read-out: MIC (µg ml-1) / IPM", "value": 32, "unit": "µg/mL"},
      {"measurement": "MIC", "setting": "[2]; read-out: MIC (µg ml-1) / IPM", "value": 64, "unit": "µg/mL"}
    ]},
    {"molecule": "Cc1onc(-c2c(Cl)cccc2Cl)c1C(=O)N[C@@H]1C(=O)N2[C@@H]1SC(C)(C)[C@@H]2C(=O)O", "note": "[dicloxacillin]", "values": [
      {"measurement": "MIC", "setting": "[1]; read-out: MIC (µg ml-1) / Dic", "value": "> 64", "unit": "µg/mL"},
      {"measurement": "MIC", "setting": "[2]; read-out: MIC (µg ml-1) / Dic", "value": "> 64", "unit": "µg/mL"}
    ]},
    {"molecule": "CCOc1ccc2ccccc2c1C(=O)N[C@@H]1C(=O)N2[C@@H]1SC(C)(C)[C@@H]2C(=O)O", "note": "[nafcillin]", "values": [
      {"measurement": "MIC", "setting": "[1]; read-out: MIC (µg ml-1) / Naf", "value": "> 64", "unit": "µg/mL"},
      {"measurement": "MIC", "setting": "[2]; read-out: MIC (µg ml-1) / Naf", "value": "> 64", "unit": "µg/mL"}
    ]},
    {"molecule": "O=c1ccn([C@@H]2O[C@H](COP(=O)(O)OP(=O)(O)O)[C@@H](O)[C@H]2O)c(=O)[nH]1", "note": "[UDP]", "values": [
      {"measurement": "X-ray crystal structure, 1.9 Å", "setting": "MnaA", "value": "The model also contains one molecule of UDP per chain"}
    ]},
    {"molecule": "MnaA (Staphylococcus aureus)", "values": [
      {"measurement": "Km", "setting": "[3]", "value": "131 ± 21", "unit": "µM"},
      {"measurement": "Km", "setting": "[4]", "value": "411 ± 57", "unit": "µM"}
    ]},
    {"molecule": "CN[C@H](CC(C)C)C(=O)N[C@H]1C(=O)N[C@@H](CC(N)=O)C(=O)N[C@H]2C(=O)N[C@H]3C(=O)N[C@H](C(=O)N[C@H](C(=O)O)c4cc(O)cc(O)c4-c4cc3ccc4O)[C@H](O)c3ccc(c(Cl)c3)Oc3cc2cc(c3O[C@@H]2O[C@H](CO)[C@@H](O)[C@H](O)[C@H]2O[C@H]2C[C@](C)(N)[C@H](O)[C@H](C)O2)Oc2ccc(cc2Cl)[C@H]1O", "note": "[vancomycin]", "values": [
      {"measurement": "MIC", "setting": "[1]; [5]", "value": 2, "unit": "µg/mL"},
      {"measurement": "MIC", "setting": "[2]; [5]", "value": 4, "unit": "µg/mL"}
    ]}
  ]
}
